From ChEMBL document CHEMBL1156128, “Nitric oxide-donating carbonic anhydrase inhibitors for the treatment of open-angle glaucoma” (Bioorg Med Chem Lett, 2009)
Values after ≈ are worked out from the molar mass of the structure shown.

Legend:
Oryctolagus cuniculus = species on record: Oryctolagus cuniculus; assay: tissue or blood; settings: Aorta
Description: Vasorelaxant activity against methoxiamin-induced contraction in rabbit aortic ring

physchem = settings: buffer, pH 6
Carbonic anhydrase 2 = Carbonic anhydrase 2 (Homo sapiens, UniProt P00918); assay: Inhibition of human carbonic anhydrase 2 up to 100 uM by CO2 hydrase stopped flow assay
Carbonic anhydrase 4 = Carbonic anhydrase 4 (Homo sapiens, UniProt P22748); assay: Inhibition of human carbonic anhydrase 4 up to 100 uM by CO2 hydrase stopped flow assay
Carbonic anhydrase 4, sequence (P22748 whole entry): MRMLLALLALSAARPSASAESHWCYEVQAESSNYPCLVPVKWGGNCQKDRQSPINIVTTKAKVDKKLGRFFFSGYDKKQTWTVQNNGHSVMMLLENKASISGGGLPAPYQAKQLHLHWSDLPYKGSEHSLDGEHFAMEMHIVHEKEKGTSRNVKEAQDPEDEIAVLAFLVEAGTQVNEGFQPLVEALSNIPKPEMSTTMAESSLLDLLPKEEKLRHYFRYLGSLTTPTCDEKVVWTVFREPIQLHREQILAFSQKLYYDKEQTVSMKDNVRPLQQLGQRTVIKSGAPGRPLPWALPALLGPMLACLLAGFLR

Carbonic anhydrase 1 = Carbonic anhydrase 1 (Homo sapiens, UniProt P00915); assay: Inhibition of human carbonic anhydrase 1 up to 100 uM by CO2 hydrase stopped flow assay
Carbonic anhydrase 1, sequence (P00915 whole entry): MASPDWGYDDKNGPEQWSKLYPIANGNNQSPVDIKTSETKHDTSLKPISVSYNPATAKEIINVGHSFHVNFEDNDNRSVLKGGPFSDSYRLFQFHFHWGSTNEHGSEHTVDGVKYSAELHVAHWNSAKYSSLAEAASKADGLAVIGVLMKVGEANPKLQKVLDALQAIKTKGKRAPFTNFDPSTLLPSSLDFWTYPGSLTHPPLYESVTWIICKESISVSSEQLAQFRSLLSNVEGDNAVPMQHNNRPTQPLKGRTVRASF

solubility (physchem) [mg/mL] | SMILES | EC50 (Oryctolagus cuniculus) [µM] | Ki (Carbonic anhydrase 2) | Ki (Carbonic anhydrase 4) | Ki (Carbonic anhydrase 1)
15.1 (≈ 32 mM) | CCN(C(=O)OCCCO[N+](=O)[O-])[C@H]1C[C@H](C)S(=O)(=O)c2sc(S(N)(=O)=O)cc21 | 2.05 | – | – | –
0.25 (≈ 0.517 mM) | CCN(C(=O)CCCCCO[N+](=O)[O-])[C@H]1C[C@H](C)S(=O)(=O)c2sc(S(N)(=O)=O)cc21 | 4.25 | – | – | –
– | CCN(C(=O)OCC(CO[N+](=O)[O-])O[N+](=O)[O-])[C@H]1C[C@H](C)S(=O)(=O)c2sc(S(N)(=O)=O)cc21 (stereo not given in full) | 0.37 | – | – | –

SMILES | solubility (physchem) [mg/mL] | EC50 (Oryctolagus cuniculus) [µM] | Ki (Carbonic anhydrase 2) | Ki (Carbonic anhydrase 4) | Ki (Carbonic anhydrase 1)
O=[N+]([O-])O[C@@H]1CO[C@H]2[C@@H]1OC[C@@H]2O [ISOSORBIDE MONONITRATE] | < 20 | 10.8 | Not Active | Not Active | Not Active
